ChEMBL document CHEMBL1145390, “Synthesis and preliminary biological characterization of new semisynthetic derivatives of ramoplanin” (J Med Chem, 2007)
Converted amounts (≈) assume the structure as drawn.

Legend:
Candida albicans = assay: Antifungal activity against Candida albicans SKF-2270 after 24 hrs by broth microdilution method; format: functional
Staphylococcus aureus [1] = assay: Antibacterial activity against methicillin-resistant and vancomycin-intermediate resistant Staphylococcus aureus clinical isolate after 24 hrs by broth microdilution method; format: functional
Staphylococcus aureus [2] = assay: Antibacterial activity against Staphylococcus aureus Smith after 24 hrs by broth microdilution method; format: functional; details: read-out: MIC
Escherichia coli = assay: Antibacterial activity against Escherichia coli SKF-12140 after 24 hrs by broth microdilution method; format: functional
Staphylococcus aureus [3] = assay: Antibacterial activity against vancomycin-intermediate resistant Staphylococcus aureus clinical isolate in presence of 30% bovine serum after 24 hrs by broth microdilution method; format: functional
Staphylococcus aureus [4] = assay: Antibacterial activity against methicillin-resistant Staphylococcus aureus clinical isolate after 24 hrs by broth microdilution method; format: functional; details: read-out: MIC
Enterococcus faecalis [5] = assay: Antibacterial activity against vancomycin A-resistant Enterococcus faecalis after 24 hrs by broth microdilution method; format: functional; details: read-out: MIC
Enterococcus faecalis [6] = assay: Antibacterial activity against Enterococcus faecalis after 24 hrs by broth microdilution method; format: functional; details: read-out: MIC
Enterococcus faecium [7] = assay: Antibacterial activity against vancomycin A-resistant Enterococcus faecium clinical isolate in presence of 30% bovine serum after 24 hrs by broth microdilution method; format: functional
Enterococcus faecalis [8] = assay: Antibacterial activity against vancomycin-resistant Enterococcus faecalis in presence of 30% bovine serum after 24 hrs by broth microdilution method; format: functional
Enterococcus faecium [9] = assay: Antibacterial activity against vancomycin A-resistant Enterococcus faecium clinical isolate after 24 hrs by broth microdilution method; format: functional; details: read-out: MIC
Enterococcus faecium [10] = assay: Antibacterial activity against Enterococcus faecium after 24 hrs by broth microdilution method; format: functional; details: read-out: MIC
Streptococcus pyogenes = assay: Antibacterial activity against Streptococcus pyogenes C203 after 24 hrs by broth microdilution method; format: functional; details: C203, 24 h
Staphylococcus aureus [11] = assay: Antibacterial activity against vancomycin-intermediate resistant Staphylococcus aureus clinical isolate after 24 hrs by broth microdilution method; format: functional
Staphylococcus aureus [12] = assay: Antibacterial activity against Staphylococcus aureus Smith in presence of 30% bovine serum after 24 hrs by broth microdilution method; format: functional
[13] = Toxicity assessed as hemolysis in erythrocytes at 90 mg/L; format: cell-based, Erythrocyte; details: human; for hemolysis at 90 mg/L: erythrocytes, read-out: Activity
[14] = Toxicity assessed as hemolysis in erythrocytes at 180 mg/L; format: cell-based, Erythrocyte; details: human; for hemolysis at 180 mg/L: erythrocytes, read-out: Activity

Row | SMILES | MIC (Candida albicans; read-out: MIC) | MIC (Staphylococcus aureus [1]; read-out: MIC) | MIC (Staphylococcus aureus [2]) | MIC (Escherichia coli; read-out: MIC) | MIC (Staphylococcus aureus [4]) | MIC (Enterococcus faecalis [5]) | MIC (Enterococcus faecalis [6]) | MIC (Enterococcus faecium [9]) | MIC (Enterococcus faecium [10]) | MIC (Streptococcus pyogenes; read-out: MIC) | MIC (Staphylococcus aureus [11]) | hemolysis at 90 mg/L [13] | hemolysis at 180 mg/L [14] | also measured
1 | CCc1ccccc1CC(=O)N[C@@H](CC(N)=O)C(=O)N[C@@H]1C(=O)N[C@H](c2ccc(O)cc2)C(=O)N[C@H](CCCN)C(=O)N[C@H]([C@@H](C)O)C(=O)N[C@@H](c2ccc(O)cc2)C(=O)N[C@H](c2ccc(O)cc2)C(=O)N[C@@H]([C@H](C)O)C(=O)N[C@@H](Cc2ccccc2)C(=O)N[C@H](CCCN)C(=O)N[C@@H](c2ccc(O[C@H]3O[C@H](CO)[C@@H](O)[C@H](O)[C@@H]3O[C@H]3O[C@H](CO)[C@@H](O)[C@H](O)[C@@H]3O)cc2)C(=O)N[C@H]([C@@H](C)O)C(=O)N[C@@H](c2ccc(O)cc2)C(=O)NCC(=O)N[C@@H](CC(C)C)C(=O)N[C@H](C)C(=O)N[C@@H](c2ccc(O)c(Cl)c2)C(=O)O[C@@H]1C(N)=O | > 128 µg/mL | 2 µg/mL (≈ 0.78 µM) | 0.125 µg/mL (≈ 0.0488 µM) | > 128 µg/mL | 0.5 µg/mL (≈ 0.195 µM) | 0.5 µg/mL (≈ 0.195 µM) | 0.5 µg/mL (≈ 0.195 µM) | 0.5 µg/mL (≈ 0.195 µM) | ≤ 0.06 µg/mL | ≤ 0.125 µg/mL | 1 µg/mL (≈ 0.39 µM) |  |  | MIC (Staphylococcus aureus [3]): 4 µg/mL; MIC (Enterococcus faecium [7]): 4 µg/mL; MIC (Enterococcus faecalis [8]): 2 µg/mL; MIC (Staphylococcus aureus [12]): 1 µg/mL
2 | CCCCCOc1ccc(C(=O)N[C@@H](CC(N)=O)C(=O)NC[C@@H]2C(=O)N[C@H](c3ccc(O)cc3)C(=O)N[C@H](CCCN)C(=O)N[C@H](C(C)C)C(=O)N[C@@H](c3ccc(O)cc3)C(=O)N[C@H](c3ccc(O)cc3)C(=O)N[C@@H]([C@@H](C)O)C(=O)N[C@@H](Cc3ccccc3)C(=O)N[C@H](CCCN)C(=O)N[C@@H](c3ccc(O[C@H]4O[C@H](CO)[C@@H](O)[C@H](O)[C@@H]4O[C@H]4O[C@H](CO)[C@@H](O)[C@H](O)[C@@H]4O)cc3)C(=O)N[C@H]([C@@H](C)O)C(=O)N[C@@H](c3ccc(O)cc3)C(=O)NCC(=O)N[C@@H](CC(C)C)C(=O)N[C@H](C)C(=O)N[C@@H](c3ccc(O)c(Cl)c3)C(=O)O[C@@H]2C(N)=O)cc1 | > 32 µg/mL | 8 µg/mL (≈ 3.05 µM) | 8 µg/mL (≈ 3.05 µM) | > 32 µg/mL | 2 µg/mL (≈ 0.763 µM) | 0.25 µg/mL (≈ 0.0954 µM) | 0.25 µg/mL (≈ 0.0954 µM) | 0.25 µg/mL (≈ 0.0954 µM) | 0.25 µg/mL (≈ 0.0954 µM) | 0.25 µg/mL (≈ 0.0954 µM) | 4 µg/mL (≈ 1.53 µM) | 8% | 10% | 
3 | CC(C)C[C@@H]1NC(=O)CNC(=O)[C@H](c2ccc(O)cc2)NC(=O)[C@@H]([C@@H](C)O)NC(=O)[C@H](c2ccc(O[C@H]3O[C@H](CO)[C@@H](O)[C@H](O)[C@@H]3O[C@H]3O[C@H](CO)[C@@H](O)[C@H](O)[C@@H]3O)cc2)NC(=O)[C@@H](CCCN)NC(=O)[C@H](Cc2ccccc2)NC(=O)[C@H]([C@@H](C)O)NC(=O)[C@@H](c2ccc(O)cc2)NC(=O)[C@H](c2ccc(O)cc2)NC(=O)[C@@H](C(C)C)NC(=O)[C@@H](CCCN)NC(=O)[C@@H](c2ccc(O)cc2)NC(=O)[C@@H](CNC(=O)[C@H](CC(N)=O)NC(=O)Cc2ccccc2)[C@@H](C(N)=O)OC(=O)[C@H](c2ccc(O)c(Cl)c2)NC(=O)[C@@H](C)NC1=O |  |  | 0.002 µg/mL (≈ 0.000785 µM) |  | 0.002 µg/mL (≈ 0.000785 µM) | 0.004 µg/mL (≈ 0.00157 µM) | 0.004 µg/mL (≈ 0.00157 µM) | 0.004 µg/mL (≈ 0.00157 µM) | 0.008 µg/mL (≈ 0.00314 µM) |  | 0.008 µg/mL (≈ 0.00314 µM) |  |  | MIC (Candida albicans): > 32 µg/mL; MIC (Staphylococcus aureus [1]): 16 µg/mL (≈ 6.28 µM); Activity ([13]; erythrocyte): 0%; MIC (Escherichia coli): > 32 µg/mL; Activity ([14]; erythrocyte): 0%; MIC (Streptococcus pyogenes): 0.06 µg/mL (≈ 0.0235 µM)
4 | CCCCCCCOc1ccc(C(=O)N[C@@H](CC(N)=O)C(=O)NC[C@@H]2C(=O)N[C@H](c3ccc(O)cc3)C(=O)N[C@H](CCCN)C(=O)N[C@H](C(C)C)C(=O)N[C@@H](c3ccc(O)cc3)C(=O)N[C@H](c3ccc(O)cc3)C(=O)N[C@@H]([C@@H](C)O)C(=O)N[C@@H](Cc3ccccc3)C(=O)N[C@H](CCCN)C(=O)N[C@@H](c3ccc(O[C@H]4O[C@H](CO)[C@@H](O)[C@H](O)[C@@H]4O[C@H]4O[C@H](CO)[C@@H](O)[C@H](O)[C@@H]4O)cc3)C(=O)N[C@H]([C@@H](C)O)C(=O)N[C@@H](c3ccc(O)cc3)C(=O)NCC(=O)N[C@@H](CC(C)C)C(=O)N[C@H](C)C(=O)N[C@@H](c3ccc(O)c(Cl)c3)C(=O)O[C@@H]2C(N)=O)cc1 | > 32 µg/mL | 16 µg/mL (≈ 6.04 µM) | 8 µg/mL (≈ 3.02 µM) | > 32 µg/mL | 4 µg/mL (≈ 1.51 µM) | 2 µg/mL (≈ 0.755 µM) | 2 µg/mL (≈ 0.755 µM) | 1 µg/mL (≈ 0.378 µM) | 2 µg/mL (≈ 0.755 µM) | 2 µg/mL (≈ 0.755 µM) | 8 µg/mL (≈ 3.02 µM) | 0% | 21% | 
5 | CC(C)C[C@@H]1NC(=O)CNC(=O)[C@H](c2ccc(O)cc2)NC(=O)[C@@H]([C@@H](C)O)NC(=O)[C@H](c2ccc(O[C@H]3O[C@H](CO)[C@@H](O)[C@H](O)[C@@H]3O[C@H]3O[C@H](CO)[C@@H](O)[C@H](O)[C@@H]3O)cc2)NC(=O)[C@@H](CCCN)NC(=O)[C@H](Cc2ccccc2)NC(=O)[C@H]([C@@H](C)O)NC(=O)[C@@H](c2ccc(O)cc2)NC(=O)[C@H](c2ccc(O)cc2)NC(=O)[C@@H](C(C)C)NC(=O)[C@@H](CCCN)NC(=O)[C@@H](c2ccc(O)cc2)NC(=O)[C@@H](CNC(=O)[C@H](CC(N)=O)NC(=O)CCc2ccccc2)[C@@H](C(N)=O)OC(=O)[C@H](c2ccc(O)c(Cl)c2)NC(=O)[C@@H](C)NC1=O | > 32 µg/mL | 8 µg/mL (≈ 3.12 µM) | 16 µg/mL (≈ 6.24 µM) | > 32 µg/mL | 2 µg/mL (≈ 0.781 µM) | 2 µg/mL (≈ 0.781 µM) | 2 µg/mL (≈ 0.781 µM) | 2 µg/mL (≈ 0.781 µM) | 1 µg/mL (≈ 0.39 µM) | ≤ 0.03 µg/mL | 8 µg/mL (≈ 3.12 µM) | 0% | 0% | 
6 | CCOc1ccc(C(=O)N[C@@H](CC(N)=O)C(=O)NC[C@@H]2C(=O)N[C@H](c3ccc(O)cc3)C(=O)N[C@H](CCCN)C(=O)N[C@H](C(C)C)C(=O)N[C@@H](c3ccc(O)cc3)C(=O)N[C@H](c3ccc(O)cc3)C(=O)N[C@@H]([C@@H](C)O)C(=O)N[C@@H](Cc3ccccc3)C(=O)N[C@H](CCCN)C(=O)N[C@@H](c3ccc(O[C@H]4O[C@H](CO)[C@@H](O)[C@H](O)[C@@H]4O[C@H]4O[C@H](CO)[C@@H](O)[C@H](O)[C@@H]4O)cc3)C(=O)N[C@H]([C@@H](C)O)C(=O)N[C@@H](c3ccc(O)cc3)C(=O)NCC(=O)N[C@@H](CC(C)C)C(=O)N[C@H](C)C(=O)N[C@@H](c3ccc(O)c(Cl)c3)C(=O)O[C@@H]2C(N)=O)cc1 | > 32 µg/mL | 32 µg/mL (≈ 12.4 µM) | 1 µg/mL (≈ 0.388 µM) | > 32 µg/mL | 2 µg/mL (≈ 0.776 µM) | 2 µg/mL (≈ 0.776 µM) | 2 µg/mL (≈ 0.776 µM) | 2 µg/mL (≈ 0.776 µM) | 2 µg/mL (≈ 0.776 µM) | < 0.03 µg/mL | 8 µg/mL (≈ 3.1 µM) | 1% | 1% | 
7 | CCCCC(=O)N[C@@H](CC(N)=O)C(=O)NC[C@@H]1C(=O)N[C@H](c2ccc(O)cc2)C(=O)N[C@H](CCCN)C(=O)N[C@H](C(C)C)C(=O)N[C@@H](c2ccc(O)cc2)C(=O)N[C@H](c2ccc(O)cc2)C(=O)N[C@@H]([C@@H](C)O)C(=O)N[C@@H](Cc2ccccc2)C(=O)N[C@H](CCCN)C(=O)N[C@@H](c2ccc(O[C@H]3O[C@H](CO)[C@@H](O)[C@H](O)[C@@H]3O[C@H]3O[C@H](CO)[C@@H](O)[C@H](O)[C@@H]3O)cc2)C(=O)N[C@H]([C@@H](C)O)C(=O)N[C@@H](c2ccc(O)cc2)C(=O)NCC(=O)N[C@@H](CC(C)C)C(=O)N[C@H](C)C(=O)N[C@@H](c2ccc(O)c(Cl)c2)C(=O)O[C@@H]1C(N)=O | > 32 µg/mL | > 32 µg/mL | 8 µg/mL (≈ 3.18 µM) | > 32 µg/mL | 8 µg/mL (≈ 3.18 µM) | 8 µg/mL (≈ 3.18 µM) | 8 µg/mL (≈ 3.18 µM) | 8 µg/mL (≈ 3.18 µM) | 8 µg/mL (≈ 3.18 µM) | 0.125 µg/mL (≈ 0.0497 µM) | 32 µg/mL (≈ 12.7 µM) | 0% | 0% | 
8 | COc1ccc(CC(=O)N[C@@H](CC(N)=O)C(=O)NC[C@@H]2C(=O)N[C@H](c3ccc(O)cc3)C(=O)N[C@H](CCCN)C(=O)N[C@H](C(C)C)C(=O)N[C@@H](c3ccc(O)cc3)C(=O)N[C@H](c3ccc(O)cc3)C(=O)N[C@@H]([C@@H](C)O)C(=O)N[C@@H](Cc3ccccc3)C(=O)N[C@H](CCCN)C(=O)N[C@@H](c3ccc(O[C@H]4O[C@H](CO)[C@@H](O)[C@H](O)[C@@H]4O[C@H]4O[C@H](CO)[C@@H](O)[C@H](O)[C@@H]4O)cc3)C(=O)N[C@H]([C@@H](C)O)C(=O)N[C@@H](c3ccc(O)cc3)C(=O)NCC(=O)N[C@@H](CC(C)C)C(=O)N[C@H](C)C(=O)N[C@@H](c3ccc(O)c(Cl)c3)C(=O)O[C@@H]2C(N)=O)cc1 | > 32 µg/mL | 32 µg/mL (≈ 12.4 µM) | 8 µg/mL (≈ 3.1 µM) | > 32 µg/mL | 8 µg/mL (≈ 3.1 µM) | 8 µg/mL (≈ 3.1 µM) | 8 µg/mL (≈ 3.1 µM) | 8 µg/mL (≈ 3.1 µM) | 16 µg/mL (≈ 6.21 µM) | 0.125 µg/mL (≈ 0.0485 µM) | 32 µg/mL (≈ 12.4 µM) | 0% | 0% | 
